Our source for the IC50 values is patent US8563559B2 (Rigel Pharmaceuticals, Inc., priority 2006, dated 2013).

The IC50 is the concentration needed to halve the response being measured. A higher IC50 goes with a need for much substance.

The structures appear in SMILES notation.

The first assay concerns the target T1, Axl (Homo sapiens, UniProt P30530).
T1 construct: endogenous in cells; host or cells: HeLa
T1 sequence (P30530 26-894): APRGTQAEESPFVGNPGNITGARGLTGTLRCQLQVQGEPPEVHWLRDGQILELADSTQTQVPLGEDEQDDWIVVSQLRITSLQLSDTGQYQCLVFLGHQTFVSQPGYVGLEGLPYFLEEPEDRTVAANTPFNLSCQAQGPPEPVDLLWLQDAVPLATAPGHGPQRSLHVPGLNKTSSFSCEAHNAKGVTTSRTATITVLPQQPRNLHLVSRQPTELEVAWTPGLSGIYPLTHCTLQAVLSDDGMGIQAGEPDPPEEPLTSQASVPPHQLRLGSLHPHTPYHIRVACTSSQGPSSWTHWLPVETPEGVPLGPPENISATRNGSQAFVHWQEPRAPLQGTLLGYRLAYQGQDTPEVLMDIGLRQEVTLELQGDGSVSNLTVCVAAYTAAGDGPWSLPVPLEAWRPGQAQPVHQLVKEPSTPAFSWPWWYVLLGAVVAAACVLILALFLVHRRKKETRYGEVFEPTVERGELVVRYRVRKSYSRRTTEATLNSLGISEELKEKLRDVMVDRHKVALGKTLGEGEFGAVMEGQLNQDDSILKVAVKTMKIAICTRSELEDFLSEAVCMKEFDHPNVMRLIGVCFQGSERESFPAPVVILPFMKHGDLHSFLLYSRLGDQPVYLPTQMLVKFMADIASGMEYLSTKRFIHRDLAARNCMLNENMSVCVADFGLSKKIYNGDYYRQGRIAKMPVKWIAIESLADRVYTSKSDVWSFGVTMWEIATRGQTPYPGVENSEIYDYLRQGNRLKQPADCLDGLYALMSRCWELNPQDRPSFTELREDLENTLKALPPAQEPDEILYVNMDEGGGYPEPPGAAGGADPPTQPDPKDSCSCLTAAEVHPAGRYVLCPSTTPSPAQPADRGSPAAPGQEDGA
The experiment in a line: Phospho-AKT in-cell Western assay (inhibition of Axl activity). Format: cell-based. The note with it: Table 1, formula (Ia); Hela cells, Axl antibody cross-linking stimulation, phospho-Akt chemiluminescence normalized to relative cell number. As to the method: The compounds of the invention were tested in the following assay for their ability to inhibit Axl activity.
Phospho-AKT in-Cell Western Assay
• Cell culture plate: 96 well assay plate (Corning 3610), white, clear bottom, tissue-culture treated. • Cells: Hela cells. • Starvation medium: For Axl stimulation: 0.5% FCS (fetal calf serum) in DMEM, plus Axl/Fc (extracellular domain of AXL fused to immunoglobulin Fc region) (R&D, 154-AL) 500 ng/mL. • For EGF (epidermal growth factor) stimulation: 0.5% FCS in DMEM (Dulbecco's modified Eagles medium). • Poly-L-Lysine 0.01% solution (the working solution): 10 μg/ml, dilute In PBS (phosphate buffered saline). • Axl antibody cross-linking: • 1st: Mouse anti-Axl (R&D, MAB154). • 2nd: Biotin-SP-conjugated AffiniPure goat anti-mouse IgG (H+L) (Jackson ImmunoResearch #115-065-003). • Fixing buffer: 4% formaldehyde in PBS. • Wash buffer: 0.1% TritonX-100 in PBS. • Quenching buffer: 3% H2O2, 0.1% Azide in wash buffer, Azide and hydrogen peroxide 1(H2O2) are added fresh. • Blocking buffer: 5% BSA in TBST (tris buffered saline plus 0.1% Tween 20). • Primary antibody: Rabbit anti-human Phospho-Akt antibody (Cell Signaling 9271): 1×250 diluted in blocking buffer. • Secondary antibody: HRP (horse radish peroxidase)-conjugated Goat anti-Rabbit secondary, stock solution: Jackson ImmunoResearch (Goat anti-Rabbit HRP, #111-035-144) 1:1 diluted in glycerol, store at −20° C. The working solution: 1×2000 dilution of stock in blocking buffer. • Chemiluminescent working solution (Pierce, 37030): SuperSignal ELISA (enzyme linked immunosorbant assay) Pico Chemiluminescent substrate. • Crystal Violet solution: Stock: 2.5% Crystal violet in methanol, filtered and kept at ambient temperature. The working solution: dilute the stock 1:20 with PBS immediately before use. • 10% SDS: working solution: 5% SDS (sodium dodecylsulfate), diluted in PBS Methods: Day 1:
A 96 well TC (tissue culture treated) plate was coated with 10 μg/mL poly-L-Lysine at 37° C. for 30 min, washed twice with PBS, and air-dried for 5 minutes before cells were added. Hela cells were seeded at 10,000 cells/well and the cells were starved in 100 μL starvation medium containing Axl/Fc for 24 hrs.
The cells were pre-treated with test compounds by adding 100 μL of 2× test compound to the starvation medium on the cells. The cells were incubated at 37° C. for 1 hr before stimulation.
The cells were stimulated by Axl-antibody cross-linking as follows: A 5×1st/2nd Axl antibody mixture was made (37.5 μg/mL 1st/100 μg/mL 2nd) in starvation medium and nutated at 4° C. with thorough mixing for 1-2 hours for clustering. The resulting mix was warmed to 37° C. 50 μL of 5×Axl 1st/2nd of antibody cluster was added to the cells and the cells were incubated at 37° C. for 5 min.
After 5 minutes stimulation, the plate was flicked to remove medium and the plate was tapped onto paper towels. Formaldehyde (4.0% in PBS, 100 μL) was added to fix the cells and the cells were incubated at ambient temperature for 20 min without shaking.
The cells were washed with a plate washer buffer to remove the formaldehyde solution. The plate was flicked to removed excess wash buffer and tapped onto paper towels. Quenching buffer (100 μL) was added to each well and the cells were incubated at ambient temperature for 20 minutes without shaking.
The cells were washed with a plate washer buffer to remove the quenching buffer. Blocking buffer (100 μL) was added and the cells were incubated at ambient temperature for at least an hour with gentle shaking.
The cells were washed with a plate washer buffer and diluted primary antibody (50 μL) was added to each well (blocking buffer was added to the negative control wells instead). The plates were incubated overnight at 4° C. with gentle shaking.
The wash buffer was removed, diluted secondary antibody (100 μL) was added, and the cells were incubated at ambient temperature for 1 hour with gentle shaking. […]
Regarding `CNC(=O)[C@H]1C[C@H]2C[C@H](C2(C)C)[C@@]1(C)Nc1nc(Nc2ccc(N3CCN(C)CC3)c(Cl)c2)ncc1Cl` [Compound 5, (1R,2R,3S,5R)-2-(5-chloro-2-(3-chloro-4-(4-methylpiperazin-1-yl)phenylamino)pyrimidin-4-ylamino)-N,2,6,6-tetramethylbicyclo[3.1.1]heptane-3-carboxamide], the IC50 is below 1000 nM. In turn, `CCN(CC)C1CCN(c2ccc(Nc3ncc(Cl)c(N[C@@]4(C)[C@@H](C(=O)NC)C[C@H]5C[C@@H]4C5(C)C)n3)cc2F)CC1` [Compound 32, (1R,2R,3S,5R)-2-(5-chloro-2-(3-fluoro-4-(4-(diethylamino)piperidin-1-yl)phenylamino)pyrimidin-4-ylamino)-N,2,6,6-tetramethylbicyclo[3.1.1]heptane-3-carboxamide] displayed an IC50 below 1000 nM.

Compound `CC1(C)[C@H]2C[C@H](C(N)=O)[C@](C)(Nc3nc(Nc4ccc(OCCN5CCCC5)c(F)c4)ncc3Cl)[C@@H]1C2` [Compound 30, (1R,2R,3S,5R)-2-(5-chloro-2-(3-fluoro-4-(2-(pyrrolidin-1-yl)ethoxy)phenylamino)pyrimidin-4-ylamino)-2,6,6-trimethylbicyclo[3.1.1]heptane-3-carboxamide] gave an IC50 below 1000 nM. `CNC(=O)[C@H]1C[C@H]2C[C@H](C2(C)C)[C@@]1(C)Nc1nc(Nc2ccc(N3CCN(C)CC3)c(F)c2)ncc1C` [Compound 43, (1R,2R,3S,5R)-2-(5-methyl-2-(3-fluoro-4-(4-methylpiperazin-1-yl)phenylamino)pyrimidin-4-ylamino)-N,2,6,6-tetramethylbicyclo[3.1.1]heptane-3-carboxamide]: the half-maximal inhibitory concentration (IC50) was below 1000 nM.

`CNC(=O)[C@H]1C[C@H]2C[C@H](C2(C)C)[C@@]1(C)Nc1nc(Nc2ccc(Cl)c(N3CCN(C(C)=O)CC3)c2)ncc1Cl` [Compound 16, (1R,2R,3S,5R)-2-(2-(3-(4-acetylpiperazin-1-yl)-4-chlorophenylamino)-5-chloropyrimidin-4-ylamino)-N,2,6,6-tetramethylbicyclo[3.1.1]heptane-3-carboxamide]: the IC50 was in the range of 1000 to 10000 nM. Compound `CC(C)NC(=O)[C@H]1C[C@H]2C[C@H](C2(C)C)[C@@]1(C)Nc1nc(Nc2ccc(OCCN3CCCC3)cc2)ncc1Cl` [Compound 63, (1R,2R,3S,5R)-2-(5-chloro-2-(4-(2-(pyrrolidin-1-yl)ethoxy)phenylamino)pyrimidin-4-ylamino)-N-(1-methylethyl)-2,6,6-trimethylbicyclo[3.1.1]heptane-3-carboxamide] showed an IC50 below 1000 nM. For `CNC(=O)[C@H]1C[C@H]2C[C@H](C2(C)C)[C@@]1(C)Nc1nc(Nc2ccc(N3CCN(C(C)=O)CC3)cc2)ncc1Cl` [Compound 13, (1R,2R,3S,5R)-2-(2-(4-(4-acetylpiperazin-1-yl)phenylamino)-5-chloropyrimidin-4-ylamino)-N,2,6,6-tetramethylbicyclo[3.1.1]heptane-3-carboxamide], the IC50 lay in the range of 1000 to 10000 nM. Same read-out and setting: under `CCN(CC)C1CCN(c2ccc(Nc3ncc(Cl)c(N[C@@]4(C)[C@@H](C(=O)NC5CC5)C[C@H]5C[C@@H]4C5(C)C)n3)cc2F)CC1` [Compound 62, (1R,2R,3S,5R)-2-(5-chloro-2-(3-fluoro-4-(4-(diethylamino)piperidin-1-yl)phenylamino)pyrimidin-4-ylamino)-N-cyclopropyl-2,6,6-trimethylbicyclo[3.1.1]heptane-3-carboxamide] stands below 1000 nM.

Staying with this assay, now noted: Table 3, formula (Ic); Hela cells, Axl antibody cross-linking stimulation, phospho-Akt chemiluminescence normalized to relative cell number.
As for `CNC(=O)[C@H]1C[C@H]2C[C@H](C2(C)C)[C@@]1(C)Nc1nc(Nc2ccc3c(c2)OCCN3CCN2CCCCC2)ncc1Cl` [Compound 56, (1R,2R,3S,5R)-2-(5-chloro-2-((3,4-dihydro-4-(2-(piperidin-1-yl)ethyl)-2H-benzo[b][1,4]oxazin-7-yl)amino)pyrimidin-4-ylamino)-N,2,6,6-tetramethylbicyclo[3.1.1]heptane-3-carboxamide], the IC50 is below 1000 nM. For the compound `CNC(=O)[C@H]1C[C@H]2C[C@H](C2(C)C)[C@@]1(C)Nc1nc(Nc2ccc3c(c2)OCCN3CCN2CCOCC2)ncc1F` [Compound 59, (1R,2R,3S,5R)-2-(5-fluoro-2-((3,4-dihydro-4-(2-(morpholin-4-yl)ethyl)-2H-benzo[b][1,4]oxazin-7-yl)amino)pyrimidin-4-ylamino)-N,2,6,6-tetramethylbicyclo[3.1.1]heptane-3-carboxamide], the IC50 fell in the range of 1000 to 10000 nM. The same measure, in the same setting: under `CNC(=O)[C@H]1C[C@H]2C[C@H](C2(C)C)[C@@]1(C)Nc1nc(Nc2ccc3c(c2)OCCN3CCN(C)C)ncc1F` [Compound 48, (1R,2R,3S,5R)-2-(5-fluoro-2-((3,4-dihydro-4-(2-(dimethylamino)ethyl)-2H-benzo[b][1,4]oxazin-7-yl)amino)pyrimidin-4-ylamino)-N,2,6,6-tetramethylbicyclo[3.1.1]heptane-3-carboxamide] stands 1000 to 10000 nM. Same read-out and setting: under `CNC(=O)[C@H]1C[C@H]2C[C@H](C2(C)C)[C@@]1(C)Nc1nc(Nc2ccc3c(c2)N(CCN(C)C)CCO3)ncc1F` [Compound 51, (1R,2R,3S,5R)-2-(5-fluoro-2-((3,4-dihydro-4-(2-(dimethylamino)ethyl)-2H-benzo[b][1,4]oxazin-6-yl)amino)pyrimidin-4-ylamino)-N,2,6,6-tetramethylbicyclo[3.1.1]heptane-3-carboxamide] stands 1000 to 10000 nM; under `CNC(=O)[C@H]1C[C@H]2C[C@H](C2(C)C)[C@@]1(C)Nc1nc(Nc2ccc3c(c2)N(CCN(C)C)CCO3)ncc1Cl` [Compound 50, (1R,2R,3S,5R)-2-(5-chloro-2-((3,4-dihydro-4-(2-(dimethylamino)ethyl)-2H-benzo[b][1,4]oxazin-6-yl)amino)pyrimidin-4-ylamino)-N,2,6,6-tetramethylbicyclo[3.1.1]heptane-3-carboxamide], 1000 to 10000 nM. Regarding `CNC(=O)[C@H]1C[C@H]2C[C@H](C2(C)C)[C@@]1(C)Nc1nc(Nc2ccc3c(c2)OCCN3CCN(C)C)ncc1C` [Compound 49, (1R,2R,3S,5R)-2-(5-methyl-2-((3,4-dihydro-4-(2-(dimethylamino)ethyl)-2H-benzo[b][1,4]oxazin-7-yl)amino)pyrimidin-4-ylamino)-N,2,6,6-tetramethylbicyclo[3.1.1]heptane-3-carboxamide], the half-maximal inhibitory concentration (IC50) fell in the range of 1000 to 10000 nM.
